The structures appear in SMILES notation. pKi: −log10 of the molar value.

In BindingDB's records for doi:10.7270/Q26T0K2P (Nmmlsc, 2010) one finds Ki data, which are given here for one compound.

The assay has as its target T1, Regulator of G-protein signaling 19 (Homo sapiens, UniProt P49795).
T1 sequence (P49795 whole entry): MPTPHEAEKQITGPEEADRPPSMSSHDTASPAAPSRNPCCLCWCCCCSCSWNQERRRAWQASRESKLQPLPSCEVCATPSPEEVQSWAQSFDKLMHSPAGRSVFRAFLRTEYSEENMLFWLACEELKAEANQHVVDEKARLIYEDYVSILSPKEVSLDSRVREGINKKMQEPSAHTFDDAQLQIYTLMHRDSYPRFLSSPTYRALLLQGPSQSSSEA
As to the kind of experiment: RGS19-Galphao binding modulators, analog potency, SAR follow-up, biochemical, SAR compounds, multiplexed bead flow cytometry (AID 2311). On the technique in general: In flow cytometry, cells or beads pass a laser one at a time.

Consider `NS(=O)(=O)c1ccc(N=NCc2ccc(O)c(O)c2O)c([N+](=O)[O-])c1` [4-[[(E)-(2,3-dihydroxy-4-oxo-1-cyclohexa-2,5-dienylidene)methyl]hydrazo]-3-nitrobenzenesulfonamide], for which the negative logarithm of the Ki (pKi) (commonly −log10 of the Ki, conventionally taken in molar units) was 7.00.
